The values below come from patent US11744814B2, “Methods and pharmaceutical preparations for elevating blood hemoglobin and oxygen saturation levels with hydroxycitric acid” (GLYKON TECHNOLOGIES GROUP, LLC, priority 2020, dated 2023).

For one test, the target named is T1, pancreatic alpha-amylase (Homo sapiens, UniProt P04746).
T1 sequence (P04746 16-511): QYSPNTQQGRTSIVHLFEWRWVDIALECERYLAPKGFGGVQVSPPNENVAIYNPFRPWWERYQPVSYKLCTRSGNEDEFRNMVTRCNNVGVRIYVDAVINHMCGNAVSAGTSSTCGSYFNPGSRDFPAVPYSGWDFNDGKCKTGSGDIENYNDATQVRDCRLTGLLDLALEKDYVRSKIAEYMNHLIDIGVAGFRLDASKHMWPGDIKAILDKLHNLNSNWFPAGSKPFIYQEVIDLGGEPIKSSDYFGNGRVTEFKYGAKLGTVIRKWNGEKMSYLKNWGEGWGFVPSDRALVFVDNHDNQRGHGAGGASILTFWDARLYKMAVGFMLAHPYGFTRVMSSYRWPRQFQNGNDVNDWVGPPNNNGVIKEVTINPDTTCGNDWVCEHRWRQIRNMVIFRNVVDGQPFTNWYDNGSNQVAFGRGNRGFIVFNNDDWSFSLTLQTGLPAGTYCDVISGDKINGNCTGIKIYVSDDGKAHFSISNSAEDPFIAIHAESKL
The settings on record: background statement, in vitro; cited from earlier work.

Test [1] relates to intestinal alpha-glucosidase. Particulars: background statement, in vitro; cited from earlier work.
A short description of test [2]: fNIRS measurement of blood hemoglobin and oxygen saturation after the Example 1 formulation. It counts as in vivo, human. Particulars: conclusion over the examples, HCA administration. On the procedure: Subjects 1-4 were orally administered the formulation of Example 1. The Subjects were given either one or two administrations of 8.33 ml of the aqueous formulation of Example 1 on an empty stomach, i.e. wherein with each 8.33 ml the subject received 2,500 mg of the potassium-magnesium (−)-hydroxycitric acid salt, corresponding to 1745 mg of (−)-hydroxycitric acid.
fNIRS testing (functional Near Infrared Spectroscopy) was used to measure blood hemoglobin and oxygen saturation. fNIRS can be used to determine real-time peripheral and cerebral hemodynamic responses. For example, relative changes in HbR (deoxygen saturation), HbO (oxygen saturation), and HbT (total hemoglobin concentration), etc. can be determined via application of Modified Beer Lambert Law. HbR, Hb=deoxygen saturation (shown as the thinnest and bottom dashed line in FIG. 1) HbO, HbO2=oxygen saturation (shown as the medium-thickness and middle line in FIG. 1) HbT=total hemoglobin concentration (shown as the darkest, thickest and top line in FIG. 1). On the graphs, time is in seconds.

Test [3] can be described thus: Blood levels of biomolecules before and 90 minutes after the Example 1 formulation. It counts as in vivo, human. Particulars: conclusion over the examples, HCA administration. The protocol:
Subject 5 was a person, weighing approximately 285 pounds and with a normal fasting blood sugar level of 115-120. First, blood was drawn from Subject 5 and levels of various biomolecules were measured. Next, Subject 5 was administered 16.66 ml of the Example 1 formulation on an empty stomach, i.e. wherein with each 16.66 ml the subject received 5,000 mg of the potassium-magnesium (−)-hydroxycitric acid salt, corresponding to 3490 mg of (−)-hydroxycitric acid. 90 minutes after the administration, blood was drawn from Subject 5 and levels of the various biomolecules were remeasured.
Subject 6 was administered 16.66 ml of the Example 1 formulation on an empty stomach, i.e. wherein with each 16.66 ml the subject received 5,000 mg of the potassium-magnesium (−)-hydroxycitric acid salt, corresponding to 3490 mg of (−)-hydroxycitric acid. 90 minutes after the administration, blood was drawn from Subject 6 and levels of the various biomolecules were remeasured.

For another test, the target named is T2, ATP citrate lyase (Homo sapiens, UniProt P53396).
T2 sequence (P53396 1-1101): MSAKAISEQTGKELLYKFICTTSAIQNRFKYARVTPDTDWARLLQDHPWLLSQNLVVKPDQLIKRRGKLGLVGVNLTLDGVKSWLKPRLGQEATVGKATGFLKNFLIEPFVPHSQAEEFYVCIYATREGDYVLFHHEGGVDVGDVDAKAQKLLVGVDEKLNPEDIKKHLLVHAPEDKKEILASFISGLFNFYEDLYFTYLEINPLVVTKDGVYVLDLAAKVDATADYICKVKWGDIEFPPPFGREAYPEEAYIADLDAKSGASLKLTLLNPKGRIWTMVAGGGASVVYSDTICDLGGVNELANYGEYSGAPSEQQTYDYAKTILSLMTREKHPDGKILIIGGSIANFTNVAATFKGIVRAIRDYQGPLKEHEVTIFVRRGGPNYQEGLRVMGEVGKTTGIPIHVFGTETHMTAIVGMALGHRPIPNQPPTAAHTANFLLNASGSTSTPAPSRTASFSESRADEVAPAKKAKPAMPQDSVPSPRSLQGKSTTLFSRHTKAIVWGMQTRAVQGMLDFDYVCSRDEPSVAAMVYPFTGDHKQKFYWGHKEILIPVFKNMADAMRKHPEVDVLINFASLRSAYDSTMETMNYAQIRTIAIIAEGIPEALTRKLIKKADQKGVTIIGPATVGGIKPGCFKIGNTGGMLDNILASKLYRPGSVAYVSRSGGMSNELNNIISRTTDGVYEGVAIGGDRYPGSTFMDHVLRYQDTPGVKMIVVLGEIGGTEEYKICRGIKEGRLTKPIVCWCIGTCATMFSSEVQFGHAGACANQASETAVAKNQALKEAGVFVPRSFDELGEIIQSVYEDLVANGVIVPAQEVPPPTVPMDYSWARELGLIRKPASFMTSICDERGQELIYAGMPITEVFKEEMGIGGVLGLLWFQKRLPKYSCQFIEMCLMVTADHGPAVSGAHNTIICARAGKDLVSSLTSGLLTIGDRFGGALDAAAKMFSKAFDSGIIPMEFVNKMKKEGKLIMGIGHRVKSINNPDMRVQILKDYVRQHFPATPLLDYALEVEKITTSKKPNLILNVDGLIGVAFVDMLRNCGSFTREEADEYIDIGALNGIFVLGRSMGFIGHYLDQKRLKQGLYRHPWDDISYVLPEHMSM
The settings on record: background statement; cited from earlier work.

SMILES strings stand for the structures.

`O=C(O)C[C@](O)(C(=O)O)[C@H](O)C(=O)O` [(2S,3R)-HCA]: the “inhibition of pancreatic alpha-amylase” value on pancreatic alpha-amylase was “inhibits”. For the same compound, the “inhibition of intestinal alpha-glucosidase” value in test [1] is on record as “inhibits”.
In the case of `O=C(O)CC(O)(C(=O)O)C(O)C(=O)O` (stereo not drawn) [HCA, 1,2-dihydroxypropane-1,2,3-tricarboxylic acid], in test [2], the blood hemoglobin entry was “increased” and the oxygen saturation result was “increased”. In test [3], the cortisol result is “decreased”, the levels of ketones result was “relatively stable or slightly lower” and the triglycerides entry is listed as “decreased”. Further, the glucose entry in test [3] (in some cases transient) was “increased”. Besides, the “inhibition of ATP citrate lyase” value at ATP citrate lyase is “competitive inhibitor”.
